pEC50: −log10 of the molar value.
Tests used:
[1] = molecular target: T1, Oxysterols receptor LXR-alpha (Homo sapiens, UniProt Q13133); experiment: Cell-Free Ligand Sensing Assay (LiSA)-LXRalpha-SRC1 Assay; settings: pH 7.5; 22 °C
T1 sequence (Q13133 whole entry): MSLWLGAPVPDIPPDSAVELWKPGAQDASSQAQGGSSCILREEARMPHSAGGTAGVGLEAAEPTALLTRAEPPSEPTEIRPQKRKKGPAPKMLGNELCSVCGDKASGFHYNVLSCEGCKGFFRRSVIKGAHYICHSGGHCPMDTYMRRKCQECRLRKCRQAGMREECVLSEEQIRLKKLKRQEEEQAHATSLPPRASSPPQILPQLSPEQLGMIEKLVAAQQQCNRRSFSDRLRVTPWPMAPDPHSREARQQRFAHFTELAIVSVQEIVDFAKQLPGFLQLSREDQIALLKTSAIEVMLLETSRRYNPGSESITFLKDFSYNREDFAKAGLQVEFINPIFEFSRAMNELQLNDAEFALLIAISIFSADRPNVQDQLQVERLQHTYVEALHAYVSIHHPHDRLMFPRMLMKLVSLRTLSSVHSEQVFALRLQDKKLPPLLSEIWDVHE
Description: (§1) The LXR LiSA measures the ligand-dependent recruitment of a 25 amino acid fragment of the steroid receptor coactivator 1 (SRC1) to the ligand-binding domain of the receptor. The biotinylated protein was incubated with streptavidin-AlloPhycoCyanin, biotinylated SRC-1 peptide, and streptavidin-labeled europium. The fluorescence resonance energy transfer was then counted on a Wallac Victor fluorescent plate reader in a time-resolved mode.

[2] = molecular target: T2, Oxysterols receptor LXR-beta (Homo sapiens, UniProt P55055); experiment: Cell-Free Ligand Sensing Assay (LiSA)-LXRbeta-SRC1 Assay; settings: pH 7.5; 22 °C
T2 sequence (P55055 whole entry): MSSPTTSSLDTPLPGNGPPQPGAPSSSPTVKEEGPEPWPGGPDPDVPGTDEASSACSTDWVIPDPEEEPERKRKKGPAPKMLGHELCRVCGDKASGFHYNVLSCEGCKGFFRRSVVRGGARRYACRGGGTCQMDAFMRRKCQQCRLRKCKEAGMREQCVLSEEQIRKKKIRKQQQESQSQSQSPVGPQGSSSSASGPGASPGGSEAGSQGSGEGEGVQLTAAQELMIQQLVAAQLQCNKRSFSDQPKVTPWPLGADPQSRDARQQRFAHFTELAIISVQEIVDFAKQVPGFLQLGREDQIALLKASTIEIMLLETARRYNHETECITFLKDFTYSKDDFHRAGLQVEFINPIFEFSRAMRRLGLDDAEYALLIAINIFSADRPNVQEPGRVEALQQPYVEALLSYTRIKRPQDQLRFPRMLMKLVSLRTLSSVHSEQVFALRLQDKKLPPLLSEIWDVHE
Description: as §1

pEC50 [1]: 6.56
pEC50 [2]: 6.59
SMILES: COc1ccc(N=C2C(=O)N(c3ccccc3)C(=O)C2c2ccccc2)cc1 (configuration not stated) [3-[(4-methoxyphenyl)amino]-1,4-diphenyl-2,5-dihydro-1H-pyrrole-2,5-dione]
